Patent publication US9296691B2, “Inhibitors of p75 receptor and their uses” (Horacio Uri Saragovi, priority 2010, dated 2016)

Key:
anti-NGF mAb NGF30 = experiment: Competitive ELISA, anti-NGF mAb NGF30 binding to immobilized NGF (selectivity control)
Description: The effect of compounds I-B and LM-24 on the binding between NGF and p75 was tested in competitive ELISA assays, where the antagonists prevent soluble p75 from binding to immobilized NGF. The selectivity of antagonism was evaluated by lack of effect upon NGF-TrkA or lack of effect between NGF and anti-NGF monoclonal antibody (mAb) NGF30 interactions (FIG. 1A).
Competitive ELISAs were performed as described (Saragovi et al., 1998). The procedure immobilized 50 ng/well NGF, or pro-NGF (Alomone Labs, Israel) onto polystyrene 96-well microtest plates, with washing and blocking with binding buffer (BB; phosphate buffered saline containing 0.5% bovine serum albumin). The following primary reagents in BB were added: recombinant chimeric p75-Fc or recombinant chimeric TrkA-Fc (R&D), or anti-NGF mAb NGF30 (Saragovi et al., 1998); each at 50 nM. The competitors I-B and the other test compounds (or control LM-24) were added at the indicated concentrations, and the plates were incubated for 45 minutes. After washing 3× in BB, HRP-conjugated secondary reagents (Sigma) were added for 30 min (goat anti-human Fc for p75-Fc and for TrkA-Fc; and goat anti-rat Ab for NGF30 mAb), and then wells were washed 3× in BB and 1× in PBS. Peroxidase activity was determined colorimetrically using the substrate TMB One Solution (Promega). The reaction was stopped with 0.5 N H2SO4 and the plates were read at 450 nm (Benchmark Plus, Bio-Rad). Assays were repeated n>4 times, with replicates of 4 wells each assay. […] Wells with no NGF immobilized but with all other reagents added were treated as background (<15% of maximal signals) and standardized to 0% binding.

[1] = tested on: retinal ganglion cells (RGCs); experiment: ON axotomy model, quantification of surviving RGCs (fluorogold labeled); type: in vivo; conditions: rat ON axotomy, one intravitreal injection 3 μg, day 14; contralateral normal eye = 100%; control axotomy 10%
Description: Wistar rats (female, 250-300 g; Charles River) were kept in a 12 hours dark-light cycle with food and water ad libitum. All animal manipulations were performed between 9 AM and 12 AM. Deep anesthesia was used during cauterization (induction of glaucoma), ON transection, fluorogold labeling, intraocular injection procedures, Optical Coherence Tomography measurements, and euthanasia (ketamine, xylazine, acepromazine injected intraperitoneally: 50/5/1 mg/kg, as per IACUC recommendations). For measuring IOP, light anesthesia was used (a gas mixture of Oxygen, 2% isofluorane mixture, at a rate of 2.5 liter/min, as per IACUC recommendations).
The ON axotomy model in the rat (Bai et al., 2010a) was used. […]
For studies in the glaucoma animal model the injections were performed at days 14 and 21 after cauterization. […] Thus, in this paradigm there is pre-existing damage for 14 days before treatment (measured at ˜8% RGC death (Shi et al., 2007; Shi et al., 2008)); and the treatments require long-lived efficacy in the constant presence of retinal stress due to high IOP. […]
Quantification of labeled RGCs was performed as reported (Shi et al., 2007; Shi et al., 2008). […] Pictures for each freshly flat-mounted retina were taken using a Zeiss fluorescence microscope (Carl Zeiss Meditec, Jena, Germany), with 12 pictures/retina at 20× magnification. […]

α2M = experiment: Glaucoma model, retinal α2M by western blot; type: in vivo, rat; conditions: intravitreal injection at glaucoma day 14, measured 3 and 5 days later
Description: After 14-days of glaucoma eyes were injected intravitreally with p75NTR antagonists, and the levels of TNF-α and α2M were measured three days later (e.g. day 17 of glaucoma) and five days later (e.g. day 19 of glaucoma) (FIG. 3A).
Both retinas of each animal were detergent solubilized, and studied in independent gels standardized to loading control. The ratio of the glaucoma eye ±treatment versus the normal contralateral eye was calculated, and results were averaged ±sem, n=3 animals per group. In glaucoma, all drug treatments were done at day 14 of hypertension. In one group the retinas were harvested at day 17 of glaucoma (3 days after intraocular injection) and in the other group the retinas were harvested at day 19 of glaucoma (5 days after intraocular injection). Normal eyes treated with NGF-A were collected in the indicated days. After SDS-PAGE and western transfer, membranes were immunoblotted with rabbit polyclonal antibodies against TNF-α (Preprotech) or α2M (Santa Cruz) at a 1:3000 dilution. Goat anti-rabbit secondary antibodies conjugated to horseradish peroxidase (Sigma) were used at a 1:10,000 dilution. Loading was controlled with antibodies to β-actin (Sigma). For digital quantification, membranes were scanned and analyzed using ImageJ software.

CC(C)NC(=O)N(C(=O)Cn1cnc2c1c(=O)n(C)c(=O)n2C)C(C)C [I-B, 1,3-Diisopropyl-1-[2-(1,3-dimethyl-2,6-dioxo-1,2,3,6-tetrahydro-purin-7-yl)-acetyl]-urea]
NGF30 binding AVERAGE (anti-NGF mAb NGF30; binding to immobilized NGF, no cpd = 100%, mAb NGF30 50 nM, as described for FIG. 1A): 88% | effect on mAb NGF30 binding to NGF (anti-NGF mAb NGF30; competitive ELISA, FIG. 1A, compound at 30 μM): did not interfere | RGCs surviving [1]: 37% | α2M level in glaucomatous retina, fold-change versus normal retina (α2M): time-dependent inhibition
